The numbers were not newly measured in paper PMC3433420 (PLoS ONE, 2012), which cites them from elsewhere.

For orientation: Kd means the concentration at which binding is half-saturated.

The data set concerns the target SH2 and PTB domains. The note with it: cited from earlier work. From the text: Supplement pone.0044471.s022.xlsx, sheet "Most recent PM interactions" | column: Kd || Supplement pone.0044471.s022.xlsx, sheet "All original PM interactions" | column: Kd
[1] abbreviates: Protein ABL2, most recent PM interactions, ref Jones et al. 2006 / Kaushansky et al. Chem and Biol 2008.
[2] abbreviates: Protein ITK, most recent PM interactions, ref Jones et al. 2006 / Kaushansky et al. Chem and Biol 2008.
Where [3] appears, read: Protein PIK3R1-N, most recent PM interactions, ref Jones et al. 2006 / Kaushansky et al. Chem and Biol 2008.
Setting [4] is: Protein PIK3R1-NC, most recent PM interactions, ref Jones et al. 2006 / Kaushansky et al. Chem and Biol 2008.
The mark [5] stands for this setting: Protein PIK3R2-N, most recent PM interactions, ref Jones et al. 2006 / Kaushansky et al. Chem and Biol 2008.
Setting [6] is: Protein PIK3R2-NC, most recent PM interactions, ref Jones et al. 2006 / Kaushansky et al. Chem and Biol 2008.
Setting [7] is: Protein PIK3R3-C, most recent PM interactions, ref Jones et al. 2006 / Kaushansky et al. Chem and Biol 2008.
The mark [8] stands for this setting: Protein PIK3R3-N, most recent PM interactions, ref Jones et al. 2006 / Kaushansky et al. Chem and Biol 2008.
The mark [9] stands for this setting: Protein PIK3R3-NC, most recent PM interactions, ref Jones et al. 2006 / Kaushansky et al. Chem and Biol 2008.

Like-named read-outs stand apart in the source and are kept apart here.

With PLTCSPQPEpYVNQPDVR [ErbB2 1139], the Kd (Protein ABL1, most recent PM interactions, ref Jones et al. 2006 / Kaushansky et al. Chem and Biol 2008) is 160 nM; the Kd under setting [1] was 70 nM; the Kd (Protein BCAR3, most recent PM interactions, ref Jones et al. 2006 / Kaushansky et al. Chem and Biol 2008) was 1000 nM; the Kd (Protein BMX, most recent PM interactions, ref Jones et al. 2006 / Kaushansky et al. Chem and Biol 2008) is 520 nM; the Kd (Protein FGR, most recent PM interactions, ref Jones et al. 2006 / Kaushansky et al. Chem and Biol 2008) is 450 nM; the Kd (Protein GRAP2, most recent PM interactions, ref Jones et al. 2006 / Kaushansky et al. Chem and Biol 2008) is 960 nM. Besides, the Kd runs as follows: (Protein GRB2, most recent PM interactions, ref Jones et al. 2006 / Kaushansky et al. Chem and Biol 2008) 76 nM; under setting [2], 1510 nM; (Protein NCK2, most recent PM interactions, ref Jones et al. 2006 / Kaushansky et al. Chem and Biol 2008) 780 nM; under setting [3], 510 nM; under setting [4], 740 nM; under setting [5], 280 nM. Besides, the Kd was 780 nM under setting [6]; 1220 nM under setting [7]; 400 nM under setting [8]; 300 nM under setting [9]; 1930 nM (Protein PLCG1-C, most recent PM interactions, ref Jones et al. 2006 / Kaushansky et al. Chem and Biol 2008); 1280 nM (Protein PLCG2-NC, most recent PM interactions, ref Jones et al. 2006 / Kaushansky et al. Chem and Biol 2008). For the same substance, the Kd runs as follows: (Protein PTPN11-NC, most recent PM interactions, ref Jones et al. 2006 / Kaushansky et al. Chem and Biol 2008) 880 nM; (Protein RASA1-N, most recent PM interactions, ref Jones et al. 2006 / Kaushansky et al. Chem and Biol 2008) 680 nM; (Protein SH2D2A, most recent PM interactions, ref Jones et al. 2006 / Kaushansky et al. Chem and Biol 2008) 980 nM; (Protein SH3BP2, most recent PM interactions, ref Jones et al. 2006 / Kaushansky et al. Chem and Biol 2008) 410 nM; (Protein SYK-NC, most recent PM interactions, ref Jones et al. 2006 / Kaushansky et al. Chem and Biol 2008) 970 nM; (Protein TENC1, most recent PM interactions, ref Jones et al. 2006 / Kaushansky et al. Chem and Biol 2008) 570 nM. In addition, the dissociation constant (Kd) is, setting by setting: (Protein TNS3, most recent PM interactions, ref Jones et al. 2006 / Kaushansky et al. Chem and Biol 2008) 770 nM; (Protein VAV1, most recent PM interactions, ref Jones et al. 2006 / Kaushansky et al. Chem and Biol 2008) 210 nM; (Protein VAV2, most recent PM interactions, ref Jones et al. 2006 / Kaushansky et al. Chem and Biol 2008) 230 nM.

Turning to “PPPApYTPMSGNQd [ErbB4 pY1056, N-terminally rhodamine-labeled 13-mer phosphopeptide]”, the dissociation constant Kd (protein ABL2, ref Kaushansky et al. Chem and Biol 2008) was 660 nM; the Kd (protein PIK3R1-N, ref Kaushansky et al. Chem and Biol 2008) is 540 nM; the equilibrium dissociation constant (Kd) (protein PIK3R1-NC, ref Kaushansky et al. Chem and Biol 2008) was 1440 nM; the Kd (protein PIK3R2-N, ref Kaushansky et al. Chem and Biol 2008) was 200 nM; the Kd (protein PIK3R2-NC, ref Kaushansky et al. Chem and Biol 2008) is 460 nM; the Kd (protein PIK3R3-N, ref Kaushansky et al. Chem and Biol 2008) was 890 nM. Further, the Kd (protein PIK3R3-NC, ref Kaushansky et al. Chem and Biol 2008) was 580 nM.

With “PSSGpYMPMNQGNd [ErbB3 pY1054, N-terminally rhodamine-labeled 13-mer phosphopeptide]”, the Kd was 170 nM (Protein ABL2, original PM interactions, ref Jones et al. 2006 / Kaushansky et al. Chem and Biol 2008); 1670 nM (Protein ITK, original PM interactions, ref Jones et al. 2006 / Kaushansky et al. Chem and Biol 2008); 1000 nM (Protein PIK3R1-C, original PM interactions, ref Jones et al. 2006 / Kaushansky et al. Chem and Biol 2008); 570 nM (Protein PIK3R1-N, original PM interactions, ref Jones et al. 2006 / Kaushansky et al. Chem and Biol 2008); 110 nM (Protein PIK3R1-NC, original PM interactions, ref Jones et al. 2006 / Kaushansky et al. Chem and Biol 2008); 1000 nM (Protein PIK3R2-N, original PM interactions, ref Jones et al. 2006 / Kaushansky et al. Chem and Biol 2008). For the same substance, the Kd runs as follows: (Protein PIK3R2-NC, original PM interactions, ref Jones et al. 2006 / Kaushansky et al. Chem and Biol 2008) 90 nM; (Protein PIK3R3-C, original PM interactions, ref Jones et al. 2006 / Kaushansky et al. Chem and Biol 2008) 110 nM; (Protein PIK3R3-N, original PM interactions, ref Jones et al. 2006 / Kaushansky et al. Chem and Biol 2008) 1000 nM; (Protein PIK3R3-NC, original PM interactions, ref Jones et al. 2006 / Kaushansky et al. Chem and Biol 2008) 50 nM; (Protein SHB, original PM interactions, ref Jones et al. 2006 / Kaushansky et al. Chem and Biol 2008) 1370 nM; (Protein SHC1-PTB, original PM interactions, ref Jones et al. 2006 / Kaushansky et al. Chem and Biol 2008) 2000 nM. For the same substance, the dissociation constant (Kd) is 1230 nM (Protein SHF, original PM interactions, ref Jones et al. 2006 / Kaushansky et al. Chem and Biol 2008); 1180 nM (Protein SYK-C, original PM interactions, ref Jones et al. 2006 / Kaushansky et al. Chem and Biol 2008).

As to “QHPDpYLQEYSTKd [ErbB4 pY1258, N-terminally rhodamine-labeled 13-mer phosphopeptide]”, the Kd is, setting by setting: (protein ABL2, all original PM interactions, ref Jones et al. 2006 / Kaushansky et al. Chem and Biol 2008) 880 nM; (protein PIK3R3-NC, all original PM interactions, ref Jones et al. 2006 / Kaushansky et al. Chem and Biol 2008) 2000 nM; (protein PLCG1-C, all original PM interactions, ref Jones et al. 2006 / Kaushansky et al. Chem and Biol 2008) 2000 nM; (protein PLCG1-NC, all original PM interactions, ref Jones et al. 2006 / Kaushansky et al. Chem and Biol 2008) 2000 nM; (protein RASA1-N, all original PM interactions, ref Jones et al. 2006 / Kaushansky et al. Chem and Biol 2008) 2000 nM; (protein SHC1-PTB, all original PM interactions, ref Jones et al. 2006 / Kaushansky et al. Chem and Biol 2008) 2000 nM. The Kd was 2000 nM (protein SLA, all original PM interactions, ref Jones et al. 2006 / Kaushansky et al. Chem and Biol 2008); 2000 nM (protein SYK-NC, all original PM interactions, ref Jones et al. 2006 / Kaushansky et al. Chem and Biol 2008); 2000 nM (protein VAV2, all original PM interactions, ref Jones et al. 2006 / Kaushansky et al. Chem and Biol 2008); 770 nM (protein VAV2, ref Jones et al. 2006 / Kaushansky et al. Chem and Biol 2008).

Turning to “QNPVpYHNQPLNPd [ErbB1 pY1110, N-terminally rhodamine-labeled 13-mer phosphopeptide]”, the dissociation constant (Kd) is, setting by setting: (protein ABL1, ref Jones et al. 2006 / Kaushansky et al. Mol Biosys 2008 / Kaushansky et al. Chem and Biol 2008) 520 nM; (protein ABL2, ref Jones et al. 2006 / Kaushansky et al. Mol Biosys 2008 / Kaushansky et al. Chem and Biol 2008) 60 nM; (protein GRB2, ref Jones et al. 2006 / Kaushansky et al. Mol Biosys 2008 / Kaushansky et al. Chem and Biol 2008) 2000 nM; (protein NCK2, ref Jones et al. 2006 / Kaushansky et al. Mol Biosys 2008 / Kaushansky et al. Chem and Biol 2008) 2000 nM; (protein SHC1-PTB, ref Jones et al. 2006 / Kaushansky et al. Mol Biosys 2008 / Kaushansky et al. Chem and Biol 2008) 320 nM.

For QSLLSPSSGpYMPMNQGN [ErbB3 1054], the Kd is 330 nM under setting [1]; 1670 nM under setting [2]; 1000 nM (Protein PIK3R1-C, most recent PM interactions, ref Jones et al. 2006 / Kaushansky et al. Chem and Biol 2008); 570 nM under setting [3]; 920 nM under setting [4]; 890 nM under setting [5]. Further, the dissociation constant Kd is 90 nM under setting [6]; 110 nM under setting [7]; 1320 nM under setting [8]; 490 nM under setting [9]; 1370 nM (Protein SHB, most recent PM interactions, ref Jones et al. 2006 / Kaushansky et al. Chem and Biol 2008); 1230 nM (Protein SHF, most recent PM interactions, ref Jones et al. 2006 / Kaushansky et al. Chem and Biol 2008). Further, the Kd (Protein SYK-C, most recent PM interactions, ref Jones et al. 2006 / Kaushansky et al. Chem and Biol 2008) is 1180 nM.
